Source: US8598365B2, “Herbicides” (Syngenta Limited, priority 2007, dated 2013)

How the values were obtained:
Format in all cases: in vivo
[1] = tested on: Alopecurus myosuroides (ALOMY); assay: Example B pre-emergence herbicidal activity; conditions: 312 h, rate 250 g/ha, evaluated after 13 days, read-out: Pre-Emergence Activity ALOMY (100=total damage to plant; 0=no damage to plant)
Procedure: (§1) Seeds of a variety of test species were sown in standard soil in pots. After cultivation for one day (pre-emergence) or after 8 days cultivation (post-emergence) under controlled conditions in a glasshouse (at 24/16° C., day/night; 14 hours light; 65% humidity), the plants were sprayed with an aqueous spray solution derived from the formulation of the technical active ingredient in acetone/water (50:50) solution containing 0.5% Tween 20 (polyoxyethelyene sorbitan monolaurate, CAS RN 9005-64-5).
(§2) The test plants were then grown in a glasshouse under controlled conditions in a glasshouse (at 24/16° C., day/night; 14 hours light; 65% humidity) and watered twice daily. After 13 days for pre and post-emergence, the test was evaluated (100=total damage to plant; 0=no damage to plant).
(§3) Alopecurus myosuroides (ALOMY), Avena fatua (AVEFA), Setaria faberi (SETFA), Echinochloa crus-galli (ECHCG), Solanum nigrum (SOLNI) and Amaranthus retoflexus (AMARE)

[2] = tested on: Amaranthus retoflexus (AMARE); assay: Example B pre-emergence herbicidal activity; conditions: Amaranthus retroflexus, 312 h, rate 250 g/ha, evaluated after 13 days, read-out: Pre-Emergence Activity AMARE (100=total damage to plant; 0=no damage to plant)
Procedure: as §1, §2, §3

[3] = tested on: Echinochloa crus-galli (ECHCG); assay: Example B pre-emergence herbicidal activity; conditions: 312 h, rate 250 g/ha, evaluated after 13 days, read-out: Pre-Emergence Activity ECHCG (100=total damage to plant; 0=no damage to plant)
Procedure: as §1, §2, §3

Setaria faberi (SETFA) [4] = assay: Example B pre-emergence herbicidal activity; conditions: 312 h, rate 250 g/ha, evaluated after 13 days, read-out: Pre-Emergence Activity SETFA (100=total damage to plant; 0=no damage to plant)
Procedure: as §1, §2, §3

Avena fatua (AVEFA) [5] = assay: Example B pre-emergence herbicidal activity; conditions: 312 h, rate 250 g/ha, evaluated after 13 days, read-out: Pre-Emergence Activity AVEFA (100=total damage to plant; 0=no damage to plant)
Procedure: as §1, §2, §3

[6] = tested on: Alopecurus myosuroides (ALOMY); assay: Example B post-emergence herbicidal activity; conditions: 312 h, rate 250 g/ha, evaluated after 13 days, read-out: Post-emergence activity ALOMY (100=total damage to plant; 0=no damage to plant)
Outline: (§4)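 Plants in pots of standard soil receive an aqueous spray of the formulated active (acetone/water 50:50, 0.5% Tween 20), either one day after sowing or after eight days of growth. They then grow under glasshouse conditions and are scored for damage after 13 days (100 = total, 0 = none).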

[7] = tested on: Amaranthus retoflexus (AMARE); assay: Example B post-emergence herbicidal activity; conditions: Amaranthus retroflexus, 312 h, rate 250 g/ha, evaluated after 13 days, read-out: Post-emergence activity AMARE (100=total damage to plant; 0=no damage to plant)
Outline: as §4

[8] = tested on: Echinochloa crus-galli (ECHCG); assay: Example B post-emergence herbicidal activity; conditions: 312 h, rate 250 g/ha, evaluated after 13 days, read-out: Post-emergence activity ECHCG (100=total damage to plant; 0=no damage to plant)
Outline: as §4

Setaria faberi (SETFA) [9] = assay: Example B post-emergence herbicidal activity; conditions: 312 h, rate 250 g/ha, evaluated after 13 days, read-out: Post-emergence activity SETFA (100=total damage to plant; 0=no damage to plant)
Outline: as §4

Avena fatua (AVEFA) [10] = assay: Example B post-emergence herbicidal activity; conditions: 312 h, rate 250 g/ha, evaluated after 13 days, read-out: Post-emergence activity AVEFA (100=total damage to plant; 0=no damage to plant)
Outline: as §4

## CCc1sc(-c2ccc(Cl)cc2F)nc1C1C(=O)[C@@H]2CC[C@@H](C2)C1=O (some centres unmarked) [Compound T26]
[1]
  pest or weed control at 250 g/ha: 90%
[2]
  pest or weed control at 250 g/ha: 0%
[3]
  pest or weed control at 250 g/ha: 100%
Setaria faberi (SETFA) [4]
  pest or weed control at 250 g/ha: 100%
Avena fatua (AVEFA) [5]
  pest or weed control at 250 g/ha: 60%
[6]
  pest or weed control at 250 g/ha: 100%
[7]
  pest or weed control at 250 g/ha: 40%
[8]
  pest or weed control at 250 g/ha: 100%
Setaria faberi (SETFA) [9]
  pest or weed control at 250 g/ha: 100%
Avena fatua (AVEFA) [10]
  pest or weed control at 250 g/ha: 100%

## CCc1sc(-c2ccc(Cl)c(F)c2)nc1C1C(=O)[C@@H]2CC[C@@H](C2)C1=O (some centres unmarked) [Compound T27]
[1]
  pest or weed control at 250 g/ha: 90%
[2]
  pest or weed control at 250 g/ha: 0%
[3]
  pest or weed control at 250 g/ha: 100%
Setaria faberi (SETFA) [4]
  pest or weed control at 250 g/ha: 100%
Avena fatua (AVEFA) [5]
  pest or weed control at 250 g/ha: 90%
[6]
  pest or weed control at 250 g/ha: 100%
[7]
  pest or weed control at 250 g/ha: 0%
[8]
  pest or weed control at 250 g/ha: 100%
Setaria faberi (SETFA) [9]
  pest or weed control at 250 g/ha: 100%
Avena fatua (AVEFA) [10]
  pest or weed control at 250 g/ha: 100%

## CCc1sc(-c2ccc(Br)cc2)nc1C1C(=O)[C@@H]2CC[C@@H](C2)C1=O (some centres unmarked) [Compound T28]
[1]
  pest or weed control at 250 g/ha: 80%
[2]
  pest or weed control at 250 g/ha: 0%
[3]
  pest or weed control at 250 g/ha: 100%
Setaria faberi (SETFA) [4]
  pest or weed control at 250 g/ha: 100%
Avena fatua (AVEFA) [5]
  pest or weed control at 250 g/ha: 90%
[6]
  pest or weed control at 250 g/ha: 100%
[7]
  pest or weed control at 250 g/ha: 0%
[8]
  pest or weed control at 250 g/ha: 100%
Setaria faberi (SETFA) [9]
  pest or weed control at 250 g/ha: 100%
Avena fatua (AVEFA) [10]
  pest or weed control at 250 g/ha: 100%

## CCc1sc(-c2c(F)cc(Cl)cc2F)nc1C1C(=O)[C@@H]2CC[C@@H](C2)C1=O (some centres unmarked) [Compound T29]
[1]
  pest or weed control at 250 g/ha: 90%
[2]
  pest or weed control at 250 g/ha: 20%
[3]
  pest or weed control at 250 g/ha: 100%
Setaria faberi (SETFA) [4]
  pest or weed control at 250 g/ha: 100%
Avena fatua (AVEFA) [5]
  pest or weed control at 250 g/ha: 90%
[6]
  pest or weed control at 250 g/ha: 100%
[7]
  pest or weed control at 250 g/ha: 0%
[8]
  pest or weed control at 250 g/ha: 100%
Setaria faberi (SETFA) [9]
  pest or weed control at 250 g/ha: 100%
Avena fatua (AVEFA) [10]
  pest or weed control at 250 g/ha: 100%

## Cc1sc(-c2ccc(I)cc2)nc1C1C(=O)[C@@H]2CC[C@@H](C2)C1=O (some centres unmarked) [Compound T30]
[1]
  pest or weed control at 250 g/ha: 90%
[2]
  pest or weed control at 250 g/ha: 20%
[3]
  pest or weed control at 250 g/ha: 100%
Setaria faberi (SETFA) [4]
  pest or weed control at 250 g/ha: 100%
Avena fatua (AVEFA) [5]
  pest or weed control at 250 g/ha: 100%
[6]
  pest or weed control at 250 g/ha: 100%
[7]
  pest or weed control at 250 g/ha: 0%
[8]
  pest or weed control at 250 g/ha: 100%
Setaria faberi (SETFA) [9]
  pest or weed control at 250 g/ha: 100%
Avena fatua (AVEFA) [10]
  pest or weed control at 250 g/ha: 100%

## Cc1sc(-c2ccc(Br)cc2F)nc1C1C(=O)[C@@H]2CC[C@@H](C2)C1=O (some centres unmarked) [Compound T32]
[1]
  pest or weed control at 250 g/ha: 90%
[2]
  pest or weed control at 250 g/ha: 0%
[3]
  pest or weed control at 250 g/ha: 100%
Setaria faberi (SETFA) [4]
  pest or weed control at 250 g/ha: 100%
Avena fatua (AVEFA) [5]
  pest or weed control at 250 g/ha: 80%
[6]
  pest or weed control at 250 g/ha: 100%
[7]
  pest or weed control at 250 g/ha: 0%
[8]
  pest or weed control at 250 g/ha: 100%
Setaria faberi (SETFA) [9]
  pest or weed control at 250 g/ha: 100%
Avena fatua (AVEFA) [10]
  pest or weed control at 250 g/ha: 90%

## CCc1sc(-c2ccc(Br)cc2F)nc1C1C(=O)[C@@H]2CC[C@@H](C2)C1=O (some centres unmarked) [Compound T33]
[1]
  pest or weed control at 250 g/ha: 90%
[2]
  pest or weed control at 250 g/ha: 0%
[3]
  pest or weed control at 250 g/ha: 100%
Setaria faberi (SETFA) [4]
  pest or weed control at 250 g/ha: 100%
Avena fatua (AVEFA) [5]
  pest or weed control at 250 g/ha: 50%
[6]
  pest or weed control at 250 g/ha: 100%
[7]
  pest or weed control at 250 g/ha: 0%
[8]
  pest or weed control at 250 g/ha: 100%
Setaria faberi (SETFA) [9]
  pest or weed control at 250 g/ha: 100%
Avena fatua (AVEFA) [10]
  pest or weed control at 250 g/ha: 100%

## Cc1sc(-c2ccc(Cl)s2)nc1C1C(=O)[C@@H]2CC[C@@H](C2)C1=O (some centres unmarked) [Compound T34]
[1]
  pest or weed control at 250 g/ha: 20%
[2]
  pest or weed control at 250 g/ha: 0%
[3]
  pest or weed control at 250 g/ha: 20%
Setaria faberi (SETFA) [4]
  pest or weed control at 250 g/ha: 20%
Avena fatua (AVEFA) [5]
  pest or weed control at 250 g/ha: 0%
[6]
  pest or weed control at 250 g/ha: 70%
[7]
  pest or weed control at 250 g/ha: 0%
[8]
  pest or weed control at 250 g/ha: 80%
Setaria faberi (SETFA) [9]
  pest or weed control at 250 g/ha: 90%
Avena fatua (AVEFA) [10]
  pest or weed control at 250 g/ha: 0%
